Reference: PubChem BioAssay (NCI)
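Five compound concentrations were applied to cells in 96-well plates for 48 hours; endpoints were derived by simple linear interpolation of the resulting dose-response curve. The concentration for 50% growth inhibition is given as GI50. TGI: concentration producing complete growth inhibition.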

Assays:
Test in all cases: DTP human tumour cell line panel, 48 h
[1] = system: OVCAR-4 ovarian
[2] = system: PC-3 prostate
[3] = system: CCRF-CEM leukemia
[4] = system: SF-268 CNS
[5] = system: KM12 colon
[6] = system: HCC-2998 colon
[7] = system: SR leukemia
[8] = system: RXF 393 renal
[9] = system: NCI-H226 lung
[10] = system: NCI-H460 lung

SMILES	TGI [1] [µM]	TGI [2] [µM]	TGI [3] [µM]	TGI [4] [µM]	TGI [5] [µM]	TGI [6] [µM]	TGI [7] [µM]	TGI [8] [µM]	TGI [9] [µM]	GI50 [1] [µM]	GI50 [2] [µM]	GI50 [3] [µM]	GI50 [4] [µM]	GI50 [10] [µM]	TGI [10] [µM]	GI50 [5] [µM]	GI50 [6] [µM]	GI50 [7] [µM]	GI50 [8] [µM]	GI50 [9] [µM]
Oc1ccc(/C=C/c2cc(O)cc3c2C(c2cc(O)cc(O)c2)C(c2ccc(O)c(O)c2)O3)cc1 (stereo unspecified)	41.2	> 100	> 100	> 100	87.4	57.4	55.4	> 100	> 100	–	–	–	–	–	–	–	–	–	–	–
O=C(Nc1ccc(Cl)cc1)Nc1nccs1	> 100	40.3	62	63.1	19.4	45.9	62.6	6.53	57	8.38	2.79	1.93	8.53	0.487	57.3	0.491	12.9	0.45	1.49	4.46
Oc1ccc(N=Nc2nccs2)c(O)c1	> 100	48.8	8.99	38.7	22.7	15	9.8	30.1	45.1	3.46	8.08	2.48	4.35	3.67	17.9	4.57	3.92	2.12	5.65	12.4
NCCCOc1cc(Cl)ccc1NC(=O)c1cc2ccccc2cc1OCCCN	2.91	2.83	2.54	2.63	2.91	2.82	4.71	2.54	2.62	1.51	1.41	0.469	1.29	1.68	3.21	1.48	1.39	1.72	1.24	1.22
COc1cc(OC)c2sc(-c3ccc(-n4cncc4-c4cc(OC)c(OC)c(OC)c4)cc3)nc2c1	> 100	> 100	> 100	–	> 100	> 100	> 100	> 100	–	3.25	2.54	3.95	–	4.67	> 100	4.62	> 100	3.24	2.8	–
NC(=O)CNc1ccc([As]=[As]c2ccc(NCC(N)=O)cc2)cc1 (stereo unspecified)	49.7	22.7	73.6	14	33.2	29.7	> 100	16.4	22.8	2.61	2.7	0.706	2.73	10.6	35.4	13.7	13.9	2.25	3.04	5.62
Clc1nc(Cl)c2ncn(Cc3ccccc3Cn3cnc4c(Cl)nc(Cl)nc43)c2n1	4.05	5.53	3.14	12.3	5.37	3.56	5.15	3.29	7.16	2	2.04	1.42	3.05	3.07	11.7	2.23	1.88	2.17	1.36	2.76
Cc1cc(NCCCCNc2ccnc3cc(Cl)ccc23)nc(Nc2ccc(C(=O)N3CCCCC3)cc2)n1	5.52	3.24	7.55	3.64	4.21	4.13	0.855	2.73	7.81	1.6	1.32	0.608	1.77	1.78	3.78	1.91	1.82	0.24	1.24	2.62
COc1ccc(-c2ccc(NNC(=O)c3ccc(F)cc3)nn2)cc1OC	> 100	> 100	> 100	> 100	> 100	> 100	> 100	> 100	> 100	55.3	50.5	38	79.8	> 100	> 100	> 100	> 100	> 100	63	71.8
c1ccc2c(c1)c1ccccc1c1ccccc21	> 100	> 100	> 100	> 100	> 100	> 100	–	> 100	> 100	> 100	> 100	> 100	> 100	> 100	> 100	> 100	> 100	–	> 100	> 100
COC(=O)C(=O)CC(=O)c1cccc(OC)c1	> 100	> 100	> 100	> 100	> 100	> 100	–	> 100	> 100	–	–	–	–	–	> 100	–	–	–	–	–
O=C(NNc1cnccn1)c1nc2cc(F)ccc2n2cccc12	0.964	> 100	> 100	> 100	> 100	> 100	> 100	–	> 100	0.211	0.527	0.211	0.551	0.403	> 100	0.509	2.88	0.247	–	1.57
COc1cc2c3c(n(CCCN(C)CCO)c(=O)c2cc1OC)-c1cc2c(cc1C3=O)OCO2	> 72.4	> 62.6	0.473	> 100	45.7	> 52.1	–	> 73.2	26.5	30.9	8.47	–	> 22.1	1.89	> 100	11.4	7.05	–	27.4	1.7
CC(=O)NC1CONC1=O (stereo unspecified)	> 100	> 100	> 100	> 100	> 100	–	> 100	> 100	> 100	–	–	–	–	–	> 100	–	–	–	–	–
